Values quoted from earlier work in patent publication US12545694B2, “Cannabidiol derivatives, preparation method thereof and use thereof” (CHENGDU BAIYU PHARMACEUTICAL CO., LTD., priority 2020, dated 2026).

Details: human

In the case of `C=C(C)[C@@H]1CCC(C)=C[C@H]1c1c(O)cc(CCCCC)cc1O` [CBD, cannabidiol], the oral bioavailability is given as “about 6%”.
